What was measured:
[1] = target: T1, EP300 (P300(1048-1664)) (Homo sapiens, UniProt Q09472); test: Biochemical assay for EP300, SAMDI; settings: EP300, SAMDI; read-out: EP300 Biochemistry IC50
T1 construct: P300(1048-1664)
T1 sequence (Q09472 1048-1664): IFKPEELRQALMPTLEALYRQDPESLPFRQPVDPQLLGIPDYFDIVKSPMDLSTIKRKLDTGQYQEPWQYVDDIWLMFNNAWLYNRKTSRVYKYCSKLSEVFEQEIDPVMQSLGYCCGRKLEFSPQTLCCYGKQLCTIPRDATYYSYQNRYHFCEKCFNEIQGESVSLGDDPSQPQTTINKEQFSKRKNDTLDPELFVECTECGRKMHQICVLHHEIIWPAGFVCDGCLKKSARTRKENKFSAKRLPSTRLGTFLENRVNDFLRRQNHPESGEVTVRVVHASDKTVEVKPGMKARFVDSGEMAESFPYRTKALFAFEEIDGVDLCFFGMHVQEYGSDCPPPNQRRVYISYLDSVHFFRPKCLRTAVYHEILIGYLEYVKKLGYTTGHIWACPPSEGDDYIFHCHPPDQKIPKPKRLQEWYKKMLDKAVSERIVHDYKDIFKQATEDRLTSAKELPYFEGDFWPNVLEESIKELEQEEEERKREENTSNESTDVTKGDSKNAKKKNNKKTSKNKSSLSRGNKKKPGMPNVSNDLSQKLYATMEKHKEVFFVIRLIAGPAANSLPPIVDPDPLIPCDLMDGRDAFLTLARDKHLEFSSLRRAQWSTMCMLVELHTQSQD
From the text: The following example describes materials and methods relating to a biochemical assay for EP300. IC50 values (micromolar (μM)) are summarized in Table 1, Table 2, and Table 3 under the column labeled: “EP300 Biochemistry IC50 (micromolar).”

[2] = target: T2, CREBBP (1084-1701) (Homo sapiens, UniProt Q92793); test: Biochemical assay for CREBBP (1084-1701), SAMDI; settings: SAMDI, read-out: CREBBP Biochemistry IC50
T2 construct: measured in the following biochemical assay using CREBBP (1084-1701); purchased
How it was run: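 Acetyltransferase activity measured by SAMDI mass spectrometry after capture on biochip. Enzyme sat with compound 30 min at RT before acetyl-CoA and biotinylated H3 11-25 (K14R, K23R) peptide were added for 30 min at RT. Formic acid quench, bicarbonate neutralisation; IC50 values reported.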

[3] = test system: H3K18Ac in HB-CLS-2 cells; test: H3K18AC in-cell western (ICW) assay; type: cell-based; settings: H3K18Ac in-cell western; read-out: CREBBP ICW IC50
How it was run: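 In-cell western: after methanol fixation, blocking, overnight 4° C anti-H3K18Ac staining, then 800CW secondary plus DRAQ5 for DNA content, integrated intensities were scanned at 800 and 700 nm. Before this, compound exposure lasted 2 hr at 37° C in HB-CLS-2 cells plated 16–24 hours earlier. Values expressed as IC50 (μM).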

[4] = test system: 647V cells; test: High throughput proliferation (HTP) assay; type: cell-based; settings: Homo sapiens, 647-V, high throughput proliferation; read-out: CREBBP HTP IC50
How it was run: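 Proliferation IC50 (micromolar) derived from a 7-day CellTiter-Glo viable-cell readout in 647V cells exposed, in triplicate, to rising compound concentrations; cells grown in DMEM plus 15% heat-inactivated FBS at 37° C under 5% CO2.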

T2 sequence (Q92793 1084-1701): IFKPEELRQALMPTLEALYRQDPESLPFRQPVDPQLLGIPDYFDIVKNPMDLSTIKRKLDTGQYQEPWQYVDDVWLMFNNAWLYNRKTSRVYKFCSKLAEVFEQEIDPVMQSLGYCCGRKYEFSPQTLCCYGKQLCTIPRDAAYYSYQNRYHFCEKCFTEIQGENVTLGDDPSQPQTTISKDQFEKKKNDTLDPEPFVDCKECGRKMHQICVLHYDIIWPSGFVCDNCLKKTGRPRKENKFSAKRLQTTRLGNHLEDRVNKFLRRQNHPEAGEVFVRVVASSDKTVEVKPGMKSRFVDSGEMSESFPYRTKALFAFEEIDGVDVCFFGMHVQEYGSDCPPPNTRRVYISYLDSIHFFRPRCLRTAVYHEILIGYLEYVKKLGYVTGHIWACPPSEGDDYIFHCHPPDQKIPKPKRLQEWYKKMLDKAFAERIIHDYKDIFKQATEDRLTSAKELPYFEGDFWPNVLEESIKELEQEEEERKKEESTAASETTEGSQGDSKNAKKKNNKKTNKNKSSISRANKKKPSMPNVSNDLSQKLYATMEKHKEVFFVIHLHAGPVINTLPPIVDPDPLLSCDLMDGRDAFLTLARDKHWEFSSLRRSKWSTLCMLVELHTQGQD

| Compound | IC50 [1] [nM] | IC50 [2] [nM] | IC50 [3] [nM] | IC50 [4] [nM] |
| --- | --- | --- | --- | --- |
| CCc1onc(CN(C)C(=O)c2cc(-c3ccc(NCCNC)c(C)n3)nc3ccc(Cl)cc23)c1C [Compound 548] | 2160 | 2020 | 2150 | 1860 |
| CCc1ncc(CN(C)C(=O)c2cc(-c3ccc(NC4CN(C(C)=O)C4)c(C)n3)nc3ccc(Cl)cc23)n1C [Compound 549] | 12.4 | 34.9 | 240 | 150 |
| CCn1ncc(CN(C)C(=O)c2cc(-c3cc(-c4ncc[nH]4)n(C)n3)nc3ccc(COC)cc23)c1C [Compound 550] | 14.1 | 32.2 | 128 | 247 |
| CCn1ncc(CN(C)C(=O)c2nc(-c3cc(NC)c4cn[nH]c4c3)nc3ccc(Cl)cc23)c1C [Compound 551] | 137 | 27 | 153 | 233 |
| CCn1ncc(CN(C)C(=O)c2nc(-c3cc(C)nc(N[C@@H]4CCNC4)c3)nc3ccc(Cl)cc23)c1C [Compound 552] | 6.3 | 13.4 | 49.7 | 72.2 |
| CCn1ncc(CN(C)C(=O)c2cc(-c3ccc(NCCNC)c(C)n3)nc3ccc(Cl)cc23)c1C1CC1 [Compound 553] | 535 | 52.5 | 466 | 763 |
| CCn1ncc(CN(C)C(=O)c2nc(-c3cc(C)cc(NC4CNCC4(F)F)c3)nc3ccc(Cl)cc23)c1C (stereo not shown) [Compound 554] | 173 | 53.5 | 1070 | 1670 |
| CCc1ncc(CN(C)C(=O)c2nc(-c3cc(Cl)cc(NCCNC)c3)nc3ccc(Cl)cc23)n1C [Compound 555] | 7.1 | 22.8 | 226 | 102 |
| CCn1ncc(CN(C)C(=O)c2cc(-c3nn(C)c(C(=O)NC)c3C)nc3ccc(Cl)cc23)c1C [Compound 556] | ≥ 50000 | ≥ 50000 | 20000 | 6290 |
| CCn1nc(C)c(CN(C)C(=O)c2cc(-c3ccc(NCCNC)c(C)n3)nc3ccc(Cl)cc23)c1C [Compound 557] | 5200 | 14100 | 18400 | 6800 |
| CCn1ncc(CN(C)C(=O)c2nc(-c3ccc4n[nH]c(NC)c4c3)nc3ccc(Cl)cc23)c1C [Compound 558] | 1.5 | 4.27 | 39.3 | 76.3 |
| CCn1ncc(CN(C)C(=O)c2cc(-c3ccc(NCCNC)c(C)n3)nc3ccc(Cl)cc23)c1COC [Compound 559] | 2050 | 593 | 838 | 1240 |
| CCc1ncc(CN(C)C(=O)c2cc(-c3ccc(NCCNC)c(C)n3)nc3ccc(Cl)cc23)o1 [Compound 560] | 412 | 142 | 242 | 448 |
| CCc1ncc(CN(C)C(=O)c2cc(-c3ccc(NC4CN(C)C4)c(C)n3)nc3ccc(Cl)cc23)n1C [Compound 561] | 6.5 | 19.1 | 58.2 | 22.8 |
| CCn1ncc(CN(C)C(=O)c2nc(-c3cc4c(NC)n[nH]c4cc3C)nc3ccc(Br)cc23)c1C [Compound 562] | 14.9 | 49.4 | 154 | 87.9 |
| CCc1ncc(CN(C)C(=O)c2nc(-c3cc4c(NC)n[nH]c4cc3C)nc3ccc(Cl)cc23)n1C [Compound 563] | 5.7 | 13.5 | 55.4 | 37.5 |
| CNCCNc1ccc(-c2cc(C(=O)N(C)Cc3cn[nH]c3C)c3cc(Cl)ccc3n2)nc1C [Compound 564] | ≥ 50000 | ≥ 50000 | 20000 | 9530 |
| CCc1ncc(CN(C)C(=O)c2cc(-c3ccc(NCCNC)c(F)n3)nc3ccc(Cl)cc23)n1C [Compound 565] | 33.8 | 51.1 | 153 | 193 |
| CCc1ncc(CN(C)C(=O)c2nc(-c3cc(C)cc(NC4CNC4)c3)nc3ccc(Cl)cc23)n1C [Compound 566] | 11.3 | 37.5 | 816 | 338 |

| Compound | IC50 [1] [nM] | IC50 [2] [nM] | IC50 [3] [nM] | IC50 [4] [nM] |
| --- | --- | --- | --- | --- |
| CCc1ncc(CN(C)C(=O)c2cc(-c3cc(NCCNC)cc(OC)n3)nc3ccc(Cl)cc23)n1C [Compound 567] | 22.2 | 79.7 | 77.9 | 32 |
| CCn1ncc(CN(C)C(=O)c2cc(-c3ccc(NCCOC)c(C)n3)nc3ccc(Cl)cc23)c1C [Compound 568] | 31.1 | 23.6 | 127 | 260 |
| CCn1ncc(CN(C)C(=O)c2cc(-c3cc(NCCN(C)C)cc(C)n3)nc3ccc(Cl)cc23)c1C [Compound 570] | 13.7 | 45 | 76.3 | 30.1 |
| CCc1ncc(CN(C)C(=O)c2cc(-c3ccc(NCC(O)CNC)c(C)n3)nc3ccc(Cl)cc23)n1C (stereo not shown) [Compound 571] | 11.1 | 25.4 | 428 | 118 |
| CCc1ncc(CN(C)C(=O)c2cc(-c3ccc(N(C)C4CN(C)C4)c(C)n3)nc3ccc(Cl)cc23)n1C [Compound 572] | 23.3 | 116 | 197 | 133 |
| CCc1nc(-c2cc(C(=O)N(C)Cc3cnn(CC)c3C)c3cc(Cl)ccc3n2)ccc1NCCN(C)C [Compound 573] | 45.4 | 46.5 | 52.7 | 49.3 |
| CCc1ncc(CN(C)C(=O)c2nc(-c3cc(C)nc(NCCNC)c3)nc3ccc(Cl)cc23)n1C [Compound 574] | 16.9 | 47.9 | 149 | 61.3 |
| CCc1noc(CN(C)C(=O)c2cc(-c3ccc(NCCNC)c(C)n3)nc3ccc(Cl)cc23)n1 [Compound 575] | 3870 | 3380 | 1520 | 1530 |
| CCc1nc(-c2cc(C(=O)N(C)Cc3cnc(CC)n3C)c3cc(COC)ccc3n2)ccc1NCCN(C)C [Compound 580] | 43.9 | 65.9 | 176 | 130 |
| CCn1ncc(CN(C)C(=O)c2nc(-c3cnc4c[nH]nc4c3)nc3ccc(Cl)cc23)c1C [Compound 581] | 1430 | 3320 | 513 | 839 |
| CCn1ncc(CN(C)C(=O)c2cc(-c3cc(C4=NCCN4)n(C)n3)nc3ccc(Cl)cc23)c1C [Compound 582] | 9.3 | 25.8 | 65.5 | 122 |
| CCc1ncc(CN(C)C(=O)c2nc(-c3cc(C)nc(NCCN(C)C)c3)nc3ccc(Cl)cc23)n1C [Compound 583] | 14.2 | 34 | 29.7 | 10.8 |
| CCn1ncc(CN(C)C(=O)c2cc(-c3ccc(NCCNC)c(OC)c3)nc3ccc(Cl)cc23)c1C [Compound 584] | 221 | 44.5 | 273 | 165 |
| CCn1ncc(CN(C)C(=O)c2cc(-c3ccc(NCCN(C)C)c(OC)c3)nc3ccc(Cl)cc23)c1C [Compound 585] | 903 | 104 | 332 | 177 |
| CCc1nn(C)c(CN(C)C(=O)c2cc(-c3ccc(NCCNC)c(C)n3)nc3ccc(Cl)cc23)c1C [Compound 586] | 23300 | 19400 | 7240 | 2130 |
| CCc1nn(C)c(CN(C)C(=O)c2cc(-c3ccc(NCCN(C)C)c(C)n3)nc3ccc(Cl)cc23)c1C [Compound 587] | 17300 | 14200 | 8020 | 1610 |
| CCc1ncc(CN(C)C(=O)c2cc(-c3ccc(NCC(O)CN(C)C)c(C)n3)nc3ccc(Cl)cc23)n1C (stereo not shown) [Compound 588] | 8.9 | 28.6 | 73.3 | 27.9 |
| CCc1cc(CN(C)C(=O)c2cc(-c3ccc(NCCN(C)C)c(C)n3)nc3ccc(Cl)cc23)on1 [Compound 590] | 734 | 336 | 403 | 390 |

Source: patent US20220144812A1, “QUINOLINE DERIVATIVES AND THEIR USE FOR THE TREATMENT OF CANCER” (Epizyme, Inc., priority 2019, published 2022)
